In this assay the test system is IOP (intra-ocular pressure). Briefly: Clinical studies: change from baseline IOP after 20 nL nanodoses of bimatoprost. Particulars: ~1 μg BP dosed as 20 nL on Days 0-3; IOP collected ~24 hours post-dose. The assay is classed as in vivo, humans. The protocol: These IOP (intra-ocular pressure) data were collected ˜24 hours post-dose on each day. […] The Day 5 data shown in FIG. 1 below are the change from baseline IOP values following application of Lumigan.

As for `CCNC(=O)CCC/C=C\C[C@@H]1[C@@H](/C=C/[C@@H](O)CCc2ccccc2)[C@H](O)C[C@@H]1O` [BP, bimatoprost], the “IOP-lowering effect (change from baseline IOP)” value is “IOP-lowering effect can occur”.

The values above are taken from patent US20130018360A1 (priority 2011, published 2013).
